Measured values from publication PMC6433232, “Targeting mitochondria in cancer therapy could provide a basis for the selective anti-cancer activity” (PLoS ONE, 2019).
Where two headings read alike, the source gives them in different places.

What was measured:
[1] = tested on: human primary hepatocytes; experiment: cells; settings: Hepatocyte, read-out: EC50, μM Hepatocytes
Description: (§2) We selected hepatocytes as normal cells because hepatocytes are mediate toxicity to multiple drugs and are used as a standard to assess toxicity of drugs in vitro [28]. […] For comparison with the standard of care, doxorubicin was also included in this analysis.

[2] = in vitro; settings: human
Protocol: (§1) Fig 1 A, Structure of NSC130362. B, Dose response curve of NSC130362 in MIA PaCa-2 cells. Cells were pre-incubated with NSC130362 for 2 h followed by addition of ATO (5 μM) and incubation for an additional 24 h. At the end of the treatment, the ratio of dead cells was determined by a CellTiterGlo reagent.

[3] = tested on: pancreatic cancer MIA PaCa-2 cells; experiment: cells; settings: for EC50: Homo sapiens, MIA PaCa-2, read-out: EC50, μM MIA PaCa-2; for improvement in anti-cancer activity: versus compound 4
Protocol: as §1

[4] = tested on: human primary hepatocytes; settings: for times more toxic toward hepatocytes than compound 2: versus compound 2; for EC50: read-out: EC50, μM Hepatocytes ATO, in the presence of ATO (5 μM), SD does not exceed 10%
Description: as §2

Compound `COc1cccc2c1C(=O)c1c(O)c3c(c(O)c1C2=O)C[C@@](O)(C(=O)CO)C[C@@H]3O[C@H]1C[C@H](N)[C@H](O)[C@H](C)O1` [Doxorubicin, reference compound] has an EC50 [1] of 10 µM, a selectivity ratio [2] of 3.5 and an EC50 [3] of 0.7 µM. The “selective cytotoxicity index, times less” value ([3]; human) was “approximately 25 times”.
With `CN(C)C1=C(Cl)C(=O)c2ccccc2C1=O` [compound 14, 2-chloro-3-(dimethylamino)-1,4-NQ] the EC50 [1] was 10 µM, the EC50 [3] was 7.2 µM and the “times more toxic toward hepatocytes than compound 2” value [4] was “approximately 2 times”.
With `O=C1C(Cl)=C(N2CC2)C(=O)c2ccccc21` [compound 15, 2-chloro-3-(aziridin-1-yl)-1,4-NQ] the EC50 [1] was 2.6 µM, the EC50 [3] was 2.3 µM and the “times more toxic toward hepatocytes than compound 2” value [4] was roughly 6.5 times.
In the case of `O=C1C(Cl)=C(NCCCO)C(=O)c2ccccc21` [compound 18], the EC50 [1] is reported as 75.3 µM, the EC50 [3] is reported as 27.5 µM and the “increase in toxicity to hepatocytes” value ([4]; versus compound 17) is reported as “approximately 3 fold”.
In the case of `CC(O)CNC1=C(Cl)C(=O)c2ccccc2C1=O` (centres unmarked) [compound 19], the EC50 [3] is reported as 24.9 µM and the “increase in toxicity to hepatocytes” value ([4]; versus compound 17) is reported as “approximately 3 fold”.
With `O=C1C(Cl)=C(NC(CO)(CO)CO)C(=O)c2ccccc21` [compound 20] the EC50 [1] was 47.8 µM, the EC50 [3] was greater than 90 µM and the “loss in anti-cancer activity” value ([3]; versus compound 13) was “approximately 50 fold”. The “loss in toxicity to hepatocytes” value ([4]; versus compound 13) was “approximately 2 fold”.
In the case of `COCCCNC1=C(Cl)C(=O)c2ccccc2C1=O` [compound 22], the EC50 [1] is reported as 90 µM, the EC50 [3] is reported as 39 µM and the “decrease in anti-cancer activity” value ([3]; versus compound 21) is reported as 4 fold. The “increase in toxicity to hepatocytes” value ([4]; versus compound 4) was “approximately 3 fold”.
With `CN(C)CCCNC1=C(Cl)C(=O)c2ccccc2C1=O` [compound 27] the EC50 [1] was 24.1 µM, the EC50 [3] was 0.9 µM and the “improvement in anti-cancer activity” value [3] was 10.8 fold. The “increase in toxicity to hepatocytes” value ([4]; versus compound 4) was 9.2 fold.
With `O=C1C(Cl)=C(NCCCN(CCO)CCO)C(=O)c2ccccc21` [compound 28] the EC50 [1] was 48.5 µM, the EC50 [3] was 9.2 µM and the “improvement in anti-cancer activity” value [3] was 4.6 fold. The “increase in toxicity to hepatocytes” value ([4]; versus compound 4) was 3.0 fold.
For `NC1=CC(=O)c2ccccc2C1=O` [compound 48, 3-amino-1,4-NQ], the EC50 [1] was 28.1 µM, the EC50 [3] was 24.4 µM and the “increase in toxicity to hepatocytes” value ([4]; versus compound 1) was “approximately 3 fold”.
With `CCNC1=CC(=O)c2ccccc2C1=O` [compound 49] the EC50 [1] was greater than 90 µM and the EC50 [3] was greater than 90 µM.
In the case of `CCCNC1=CC(=O)c2ccccc2C1=O` [compound 50], the EC50 [1] is reported as greater than 90 µM and the EC50 [3] is reported as greater than 90 µM.
`CCCCNC1=CC(=O)c2ccccc2C1=O` [compound 51] gave an EC50 [1] greater than 90 µM and an EC50 [3] greater than 90 µM.
With `CC(C)CNC1=CC(=O)c2ccccc2C1=O` [compound 52] the EC50 [1] was greater than 90 µM and the EC50 [3] was greater than 90 µM.
`O=C1C=CC(=O)c2ccccc21` [compound 56, 1,4-NQ, reference compound] showed an EC50 [1] of 1.8 µM and an EC50 [3] of 9.2 µM.
For `O=C1C=C(NCCNCCO)C(=O)c2ccccc21` [compound 57], the EC50 [1] was 83.2 µM and the EC50 [3] was greater than 90 µM.
For `O=C1C=C(N2CCCCC2)C(=O)c2ccccc21` [compound 58], the EC50 [1] was 90 µM and the EC50 [3] was 52 µM.
In the case of `CCN(CC)C1=CC(=O)c2ccccc2C1=O` [compound 59], the EC50 [1] is reported as 90 µM and the EC50 [3] is reported as 90 µM.
For `CC1=CC(=O)c2ccccc2C1=O` [compound 61, 3-methyl-1,4-NQ, reference compound], the EC50 [1] was 11.8 µM, the selectivity ratio [2] was 10.4 and the EC50 [3] was 7.8 µM. The improved anti-cancer activity ([3]; versus 1,4-NQ (compound 56)) was 1.5 fold, the “times less toxic to hepatocytes” value [4] was “approximately 5 times” and the EC50 [4] was 15.6 µM.
With `NC1=C(Br)C(=O)c2ncccc2C1=O` [compound 65] the EC50 [1] was 8.6 µM, the EC50 [3] was 1.8 µM and the EC50 [4] was 4.1 µM.
